Patent US20170349532A1, “CATIONIC LIPID” (Kyowa Hakko Kirin Co., Ltd., priority 2011, published 2017)

How the values were obtained:
[1] = Average particle diameter of preparation (Zetasizer Nano ZS); format: physicochemical; conditions: for average particle diameter of the complex between the cationic lipis and the nucleic acid in the preparation: Comparative Examples 1 to 8, prepared as Example 118 with apo-b siRNA
Outline: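 Lipid nanoparticles formed by mixing cationic lipid/PEG-DMPE Na/DSPC/cholesterol (8.947/1.059/5.708/13.697 mmol/L in 90% ethanol, 37 °C) with apo-b siRNA in Tris-EDTA/citrate buffer pH 5.0, then diluted with citrate/NaCl pH 6.0 and DPBS to 10 μM siRNA. Mean complex diameter measured by dynamic light scattering.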

[2] = system: CKAP5 mRNA in MIA PaCa-2 subcutaneous tumor; assay: Test Example 3: in vivo mRNA knockdown evaluation in MIA PaCa-2 xenograft; parameters: species or system SCID mouse; conditions: Example 122 preparation with CKAP5 siRNA; 48 hours after intravenous administration, 10 mg/kg siRNA, MIAPaCa-2 xenograft mouse
Experimental: The preparations obtained in Example 122 and 123 are subjected to an in vivo mRNA knockdown evaluation test in the following manner.
MIA PaCa-2 that is a cell line derived from human pancreas cancer is received from the JCRB Cell Bank and cultivated with high glucose-containing DMEM (manufactured by GIBCO, 11995-073) containing a 10% inactivated fetal calf serum (manufactured by GIBCO) and 1 vol % penicillin-streptomycin (manufactured by GIBCO, 26253-84) under conditions at 37° C. and 5% CO2. […] Before the administration and 48 hours after the administration, the weight of the mouse is measured. […]
With respect to the obtained tumor sample, 1 mL of a Trizol reagent (manufactured by Invitrogen, 15596-018) and zirconia beads of 5 mm are added to a 2-mL round bottom tube containing the sample charged therein, and the contents are pulverized by Tissue lyser II (manufactured by QIAGEN) under conditions of 1/25 freq, 1.5 minutes×2 times. […] A concentration of the extracted RNA is measured by a trace absorption photometer Dropsense96 (Trinean), and RNA corresponding to from 200 to 1,000 ng is subjected to reverse transfer with a Transcriptor (manufactured by Roche, 4897030). […] An mRNA amount of the specimen is calculated as a relative proportion when the mRNA amount of CKAP5 mRNA was defined as 1. […]

average particle diameter of the complex between the cationic lipis and the nucleic acid in the preparation [1] [nm] | SMILES | other results
 | CCCCC/C=C\C/C=C\CCCCCCCC(=O)OC[C@@H]1CN(C)C[C@H]1COC(=O)CCCCCCC/C=C\C/C=C\CCCCC (relative stereo) [Compound 110, trans-1-Methyl-3,4-bis(((9Z,12Z)-octadec-9,12-dienoyloxy)methyl)pyrrolidine] | Particle diameter of Preparetion ([1]; average particle diameter of cationic lipid/nucleic acid complex, Example 118 preparation: compound/PEG-DMPE Na/DSPC/cholesterol with apo-b siRNA): 131.6 nm; amount of CKAP mRNA in tumor, relative proportion [2]: 0.28; in vivo mRNA knockdown rate [2]: 72%
141.0 | CCCCC/C=C\C/C=C\CCCCCCCC(=O)O[C@@H]1CN(C)C[C@H]1OC(=O)CCCCCCC/C=C\C/C=C\CCCCC [Compound A-3, (3R,4R)-1-Methylpyrrolidine-3,4-diyl di((9Z,12Z)-octadec-9,12-dienoate), reference compound] | 
131.1 | CCCCCCCC/C=C\CCCCCCCC(=O)O[C@@H]1CN(C)C[C@H]1OC(=O)CCCCCCC/C=C\CCCCCCCC [Compound A-4, (3R,4R)-1-Methylpyrrolidine-3,4-diyl di((Z)-octadec-9-enoate), reference compound] | 
136.4 | CCCCC/C=C\C/C=C\CCCCCCCC(=O)OCCN(C)CCOC(=O)CCCCCCC/C=C\C/C=C\CCCCC [Compound A-5, N-Methyl-N,N-bis(2-((9Z,12Z)-1-oxooctadec-9,12-dienyloxy)ethyl)amine, reference compound] | 
139.5 | CCCCCCCC/C=C\CCCCCCCC(=O)OCCN(C)CCOC(=O)CCCCCCC/C=C\CCCCCCCC [Compound A-6, N-Methyl-N,N-bis(2-((Z)-1-oxooctadec-9-enyloxy)ethyl)amine, reference compound] | 
157.8 | CCCCCCCC/C=C\CCCCCCCCO[C@@H]1CN(Cc2ccccc2)C[C@H]1OCCCCCCCC/C=C\CCCCCCCC [Compound VI-4, (3R,4R)-1-Benzyl-3,4-bis((Z)-octadec-9-enyloxy)pyrrolidine, reference compound] | 
